ChEMBL document CHEMBL1201862, “PubChem BioAssay data set” (2004)
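In this assay, cells in 96-well plates receive the compound at five concentrations for 48 hours. Endpoints are linearly interpolated between the surrounding concentrations. At the GI50, growth is halved.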 Calls of active or inactive are those of the source. No stated cut-off is given here; in the data, active = GI50 up to about 1.1 µM and inactive = higher.

Legend:
Test in all cases: NCI anticancer screen, dose series, 48 h
[1] = system: ACHN
[2] = system: BT-549
[3] = system: CAKI-1
[4] = system: HCT-15
[5] = system: HL-60
[6] = system: HOP-62
[7] = system: HT-29
[8] = system: K562
[9] = system: LOX IMVI
[10] = system: M14
[11] = system: MDA-N
[12] = system: Malme-3M
[13] = system: NCI-H23
[14] = system: RPMI-8226
[15] = system: SF-268
[16] = system: SNB-19
[17] = system: U-251
[18] = system: UACC-62
[19] = system: A498
[20] = system: UO-31

Measured: GI50

CCOC(=O)[C@H](CO)NC1=C(Cl)C(=O)c2c(O)ccc(O)c2C1=O
> 10 µM: [4]
inactive: [1] > 10 µM | [2] > 10 µM | [3] > 10 µM | [5] > 10 µM | [6] > 10 µM | [7] 5.33 µM | [8] > 10 µM | [9] > 10 µM | [10] > 10 µM | [11] > 10 µM | [12] > 10 µM | [13] > 10 µM | [14] > 10 µM | [15] > 10 µM | [16] > 10 µM | [17] > 10 µM | [18] > 10 µM

NC(CC1=CCC=CC1)C(=O)O (stereo not drawn)
57.9 µM: [4]
inactive: [19] > 100 µM | [1] > 100 µM | [2] > 100 µM | [3] > 100 µM | [6] > 100 µM | [7] 61.9 µM | [8] 28.9 µM | [9] 91.8 µM | [10] 80.2 µM | [11] 59.2 µM | [13] > 100 µM | [14] 9.2 µM | [15] > 100 µM | [16] > 100 µM | [17] 64.4 µM | [18] > 100 µM | [20] > 100 µM

CCOP(=O)(OCC)C(C(=O)OC)C(=O)C(=O)Nc1cccc(O)c1 (stereo not drawn)
> 100 µM: [4]
inactive: [19] > 100 µM | [1] > 100 µM | [2] > 100 µM | [3] > 100 µM | [6] > 100 µM | [7] > 100 µM | [9] > 100 µM | [10] > 100 µM | [11] > 100 µM | [12] > 100 µM | [13] > 100 µM | [15] > 100 µM | [16] > 100 µM | [17] > 100 µM | [18] > 100 µM | [20] > 100 µM

O=C(Nc1cccc(C(F)(F)F)c1)C(=O)C(C(=O)c1ccc2ccccc2c1)C1OC(=O)c2ccccc21 (stereo not drawn)
inactive: [19] 9.93 µM | [1] 12.6 µM | [2] 14.3 µM | [3] 12.4 µM | [5] 7.69 µM | [6] 11.5 µM | [7] 13.5 µM | [8] 5.38 µM | [9] 4.23 µM | [10] 13 µM | [12] 6.81 µM | [13] 6.46 µM | [14] 3.68 µM | [15] 5.05 µM | [16] 6.25 µM | [17] 4.08 µM | [18] 7.53 µM | [20] 12.4 µM
8.13 µM: [4]

CC(C)(CN1CCCCC1)C(=O)CC(SCCS(=O)(=O)O)c1ccccc1 (stereo not drawn)
8.57 µM: [4]
inactive: [19] 14.9 µM | [1] 16.9 µM | [2] 15.3 µM | [3] 15.5 µM | [6] 30.8 µM | [7] 11.4 µM | [8] 2.7 µM | [10] 9.38 µM | [11] 16.3 µM | [12] 12.7 µM | [13] > 10 µM | [14] 23.2 µM | [15] 10 µM | [16] 17.5 µM | [17] 21.6 µM | [18] 14 µM | [20] 12.1 µM

CCN(CC)CCNc1ccc2ncn3c4cc(OC)c(OC)c(O)c4c(=O)c1c23
9.91 µM: [4]
inactive: [19] 15.5 µM | [1] 3.76 µM | [2] 16.3 µM | [3] 14 µM | [5] 11 µM | [6] 11.4 µM | [7] 3.8 µM | [8] 5.89 µM | [9] 1.24 µM | [10] 14.2 µM | [12] 18 µM | [13] 2.69 µM | [14] 3.03 µM | [15] 3.49 µM | [16] 7.59 µM | [17] 12.9 µM | [18] 16.6 µM | [20] 12.3 µM

O=C(N/N=C/c1ccccc1O)c1ccccc1Nc1ccccc1C(=O)N/N=C/c1ccccc1O
active: [1] 0.394 µM | [3] 0.617 µM | [6] 0.432 µM | [7] 0.518 µM | [8] 1 µM | [9] 0.154 µM | [10] 0.953 µM | [12] 0.29 µM | [15] 0.255 µM | [18] 1.05 µM | [20] 0.411 µM
inactive: [19] > 100 µM | [2] 7.03 µM | [5] 1.69 µM | [11] > 100 µM | [13] 1.84 µM | [16] 3.41 µM | [17] 3.48 µM
0.329 µM: [4]
